Patent US11000033B2, “Ketone or oxime compound, and herbicide” (NISSAN CHEMICAL CORPORATION, priority 2014, dated 2021)

What was measured:
Format in all cases: in vivo
[1] = test system: Echinochloa oryzacola Vasing.; test: Test Example 1: herbicidal activity, application before weed generation in submerged conditions (symbol A)
Procedure, shortened: (§1)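 0–5 visual score, 3 wk post-application. Submerged pots, alluvial soil, water 4 cm; seeds sown mixed, rice at 2.5 leaves transplanted. Emulsion diluted to predetermined dose, applied to water surface at sowing. 25–30 °C greenhouse.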

Scirpus juncoides = test: Test Example 1: herbicidal activity, application before weed generation in submerged conditions (symbol B)
Procedure, shortened: as §1

Monochoria vaginalis = test: Test Example 1: herbicidal activity, application before weed generation in submerged conditions (symbol C)
Procedure, shortened: as §1

transplanted rice plant = test: Test Example 1: effect on crop, application before weed generation in submerged conditions (symbol a)
Procedure, shortened: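 Alluvial soil pots flooded to 4 cm water, sown with Echinochloa oryzacola, Scirpus juncoides and Monochoria vaginalis, then transplanted with 2.5 leaf stage rice seedlings; pre-emergence application. Greenhouse 25° C. to 30° C.; scored 0–5 by herbicidal ratio 3 weeks after application.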

[2] = test system: directly sowed rice plant; test: Test Example 3: effect on crop by foliage application, Wagner pot (symbol b)
Procedure, shortened: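 Steps: fill a 1/10000-are Wagner pot with alluvial soil; add water and mix to submerge at 0.1–0.5 cm depth; sow rice plus Echinochloa crus-galli var. crus-galli, Leptochloa chinensis and Cyperus difformis; grow in a 25–30 °C greenhouse.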

Setaria viridis = test: Test Example 4: herbicidal effect by soil treatment (symbol G); details: for G (Setaria viridis) herbicidal effect grade: application herbicide amount 320 g/ha
Procedure, shortened: (§2)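 Seeds were sown in sterilized diluvial soil, covered with about 1.5 cm of soil, and the soil surface was sprayed with a water-diluted emulsion of the compound at a predetermined rate. Plants grew in a greenhouse at 25° C. to 30° C.; effects were scored visually 3 weeks after application.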

Apera spica-venti [3] = test: Test Example 4: herbicidal effect by soil treatment (symbol L); details: for L (Apera spica-venti) herbicidal effect grade: application herbicide amount 320 g/ha
Procedure, shortened: as §2

Abutilon theophrasti = test: Test Example 4: herbicidal effect by soil treatment (symbol M); details: for M (Abutilon theophrasti) herbicidal effect grade: application herbicide amount 320 g/ha
Procedure, shortened: as §2

Stellaria media = test: Test Example 4: herbicidal effect by soil treatment (symbol P); details: for P (Stellaria media) herbicidal effect grade: application herbicide amount 320 g/ha
Procedure, shortened: as §2

Galium spurium [4] = test: Test Example 4: herbicidal effect by soil treatment (symbol Q); details: for Q (Galium spurium) herbicidal effect grade: application herbicide amount 320 g/ha
Source text: Herbicidal Effect Test by Soil Treatment
Sterilized diluvial soil was placed in a plastic box having a length of 21 cm, a width of 13 cm, and a depth of 7 cm. Each of the seeds of Digitaria ciliaris, Setaria viridis, Echinochloa crus-galli var. crus-galli, Avena fatua, Alopecurus myosuroides, Lolium multiflorum Lam., Apera spica-venti, Abutilon theophrasti, Amaranthus retroflexus, Chenopodium album, Stellaria media, Galium spurium, Veronica persica, corn, soybean, rice, wheat, beet, and rapeseed was sowed in a spot-like manner and was covered with the soil of a thickness of about 1.5 cm. Subsequently, the emulsion agent of the compound present invention prepared in accordance with Formulation Example 2 was diluted with water so as to be a predetermined herbicide amount and the diluted emulsion agent was uniformly applied to the surface of the soil with a small-size spray. The plastic box was placed in a greenhouse of 25° C. to 30° C. to grow plant. 3 weeks later from the herbicide application, the effect to each plant was investigated in accordance with the criteria of Test Example 1.

Digitaria ciliaris = test: Test Example 5: herbicidal effect by foliage application, plastic box (symbol F); details: 3 weeks after application
Procedure, shortened: (§3)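 Sowing in sterilized diluvial soil, 14 days' greenhouse growth at 25° C. to 30° C., then uniform small-sprayer foliar application of aqueous emulsion dilution; plants scored three weeks afterwards.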

Avena fatua = test: Test Example 5: herbicidal effect by foliage application, plastic box (symbol I); details: 3 weeks after application
Procedure, shortened: as §3

Lolium multiflorum Lam. = test: Test Example 5: herbicidal effect by foliage application, plastic box (symbol K); details: 3 weeks after application
Procedure, shortened: as §3

Apera spica-venti [5] = test: Test Example 5: herbicidal effect by foliage application, plastic box (symbol L); details: 3 weeks after application
Procedure, shortened: as §3

Galium spurium [6] = test: Test Example 5: herbicidal effect by foliage application, plastic box (symbol Q); details: 3 weeks after application
Procedure, shortened: as §3

wheat = test: Test Example 5: effect on crop by foliage application, plastic box (symbol e); details: 3 weeks after application
Procedure, shortened: (§4)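 Plants were raised from seed in a greenhouse (25° C. to 30° C.) after sowing in a plastic box of sterilized diluvial soil.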

rapeseed = test: Test Example 5: effect on crop by foliage application, plastic box (symbol g); details: 3 weeks after application
Procedure, shortened: as §4

[7] = application herbicide amount 320 g/ha
[8] = application herbicide amount 269 g/ha

| Compound | Herbicidal effect grade, A: Echinochloa oryzacola Vasing. [1, 7] | Herbicidal effect grade, B: Scirpus juncoides (Scirpus juncoides; [7]) | Herbicidal effect grade, C: Monochoria vaginalis (Monochoria vaginalis; [7]) | Effect grade on crop, a: transplanted rice plant (transplanted rice plant; [7]) | effect on crop b (directly sowed rice plant), grade 0-5 [2, 7] | G (Setaria viridis) herbicidal effect grade (Setaria viridis) | L (Apera spica-venti) herbicidal effect grade (Apera spica-venti [3]) | M (Abutilon theophrasti) herbicidal effect grade (Abutilon theophrasti) | P (Stellaria media) herbicidal effect grade (Stellaria media) | Q (Galium spurium) herbicidal effect grade (Galium spurium [4]) | F: Digitaria ciliaris, herbicidal effect grade (Digitaria ciliaris; 320 g/ha) | I: Avena fatua, herbicidal effect grade (Avena fatua; 320 g/ha) | K: Lolium multiflorum Lam., herbicidal effect grade (Lolium multiflorum Lam.; 320 g/ha) | L: Apera spica-venti, herbicidal effect grade (Apera spica-venti [5]; 320 g/ha) | Q: Galium spurium, herbicidal effect grade (Galium spurium [6]; 320 g/ha) | e: wheat, effect on crop grade (wheat; 320 g/ha) | g: rapeseed, effect on crop grade (rapeseed; 320 g/ha) | further results |
| --- | --- | --- | --- | --- | --- | --- | --- | --- | --- | --- | --- | --- | --- | --- | --- | --- | --- | --- |
| CON=C(C)CC1CC(OC(=O)C(C)(C)C)=C(c2c(C)cc(C)cc2C)C1=O (centres unmarked) [1-004, 2-mesityl-4-{2-(methoxyimino)propyl}-3-oxocyclopent-1-en-1-yl pivalate] | 5 (Herbicidal ratio of 90% or more (almost completely withered)) | 5 (Herbicidal ratio of 90% or more (almost completely withered)) | 4 (Herbicidal ratio of 70% or higher and lower than 90%) | 5 (Herbicidal ratio of 90% or more (almost completely withered)) | 5 (Herbicidal ratio of 90% or more (almost completely withered)) | 5 (Herbicidal ratio of 90% or more (almost completely withered)) | 5 (Herbicidal ratio of 90% or more (almost completely withered)) | 5 (Herbicidal ratio of 90% or more (almost completely withered)) | 0 (Herbicidal ratio of 5% or lower (almost no effect)) | 0 (Herbicidal ratio of 5% or lower (almost no effect)) | 5 (Herbicidal ratio of 90% or more (almost completely withered)) | 5 (Herbicidal ratio of 90% or more (almost completely withered)) | 5 (Herbicidal ratio of 90% or more (almost completely withered)) | 5 (Herbicidal ratio of 90% or more (almost completely withered)) | 3 (Herbicidal ratio of 40% or higher and lower than 70%) | 5 (Herbicidal ratio of 90% or more (almost completely withered)) | 4 (Herbicidal ratio of 70% or higher and lower than 90%) | – |
| CON=C(C)CC1CC(OC(C)=O)=C(c2c(C)cc(C)cc2C)C1=O (centres unmarked) [1-005] | 5 (Herbicidal ratio of 90% or more (almost completely withered)) | 5 (Herbicidal ratio of 90% or more (almost completely withered)) | 5 (Herbicidal ratio of 90% or more (almost completely withered)) | 5 (Herbicidal ratio of 90% or more (almost completely withered)) | 5 (Herbicidal ratio of 90% or more (almost completely withered)) | 3 (Herbicidal ratio of 40% or higher and lower than 70%) | 5 (Herbicidal ratio of 90% or more (almost completely withered)) | 5 (Herbicidal ratio of 90% or more (almost completely withered)) | 0 (Herbicidal ratio of 5% or lower (almost no effect)) | 0 (Herbicidal ratio of 5% or lower (almost no effect)) | 5 (Herbicidal ratio of 90% or more (almost completely withered)) | 5 (Herbicidal ratio of 90% or more (almost completely withered)) | 5 (Herbicidal ratio of 90% or more (almost completely withered)) | 5 (Herbicidal ratio of 90% or more (almost completely withered)) | 4 (Herbicidal ratio of 70% or higher and lower than 90%) | 5 (Herbicidal ratio of 90% or more (almost completely withered)) | 4 (Herbicidal ratio of 70% or higher and lower than 90%) | – |
| CON=C(C)CC1CC(OC(=O)CN(C)C(=O)c2ccccc2)=C(c2c(C)cc(C)cc2C)C1=O (centres unmarked) [1-139] | 5 (Herbicidal ratio of 90% or more (almost completely withered)) | 4 (Herbicidal ratio of 70% or higher and lower than 90%) | 1 (Herbicidal ratio of 5% or higher and lower than 20%) | 5 (Herbicidal ratio of 90% or more (almost completely withered)) | 5 (Herbicidal ratio of 90% or more (almost completely withered)) | – | – | – | – | – | – | – | – | – | – | – | – | G: Setaria viridis, herbicidal effect grade (Setaria viridis; 320 g/ha): 5 (Herbicidal ratio of 90% or more (almost completely withered)); L: Apera spica-venti, herbicidal effect grade (Apera spica-venti [3]; 320 g/ha): 5 (Herbicidal ratio of 90% or more (almost completely withered)); M: Abutilon theophrasti, herbicidal effect grade (Abutilon theophrasti; 320 g/ha): 4 (Herbicidal ratio of 70% or higher and lower than 90%); P: Stellaria media, herbicidal effect grade (Stellaria media; 320 g/ha): 0 (Herbicidal ratio of 5% or lower (almost no effect)); Q: Galium spurium, herbicidal effect grade (Galium spurium [4]; 320 g/ha): 0 (Herbicidal ratio of 5% or lower (almost no effect)); F: Digitaria ciliaris, herbicidal effect (criteria 0-5) (Digitaria ciliaris; 320 g/ha): 5 (Herbicidal ratio of 90% or more (almost completely withered)); I: Avena fatua, herbicidal effect (criteria 0-5) (Avena fatua; 320 g/ha): 5 (Herbicidal ratio of 90% or more (almost completely withered)); K: Lolium multiflorum Lam., herbicidal effect (criteria 0-5) (Lolium multiflorum Lam.; 320 g/ha): 5 (Herbicidal ratio of 90% or more (almost completely withered)); L: Apera spica-venti, herbicidal effect (criteria 0-5) (Apera spica-venti [5]; 320 g/ha): 5 (Herbicidal ratio of 90% or more (almost completely withered)); Q: Galium spurium, herbicidal effect (criteria 0-5) (Galium spurium [6]; 320 g/ha): 3 (Herbicidal ratio of 40% or higher and lower than 70%); e: wheat, effect on crop (criteria 0-5) (wheat; 320 g/ha): 5 (Herbicidal ratio of 90% or more (almost completely withered)); g: rapeseed, effect on crop (criteria 0-5) (rapeseed; 320 g/ha): 4 (Herbicidal ratio of 70% or higher and lower than 90%) |
| CC(=O)C(C)C1CC(O)=C(c2c(C)cc(C)cc2C)C1=O (centres unmarked) [2-005] | – | – | – | – | – | – | – | – | – | – | – | – | – | – | – | – | – | Herbicidal effect grade, A: Echinochloa oryzacola Vasing. [1, 8]: 3 (Herbicidal ratio of 40% or higher and lower than 70%); Herbicidal effect grade, B: Scirpus juncoides (Scirpus juncoides; [8]): 0 (Herbicidal ratio of 5% or lower (almost no effect)); Herbicidal effect grade, C: Monochoria vaginalis (Monochoria vaginalis; [8]): 0 (Herbicidal ratio of 5% or lower (almost no effect)); Effect grade on crop, a: transplanted rice plant (transplanted rice plant; [8]): 4 (Herbicidal ratio of 70% or higher and lower than 90%); effect on crop b (directly sowed rice plant), grade 0-5 [2, 8]: 5 (Herbicidal ratio of 90% or more (almost completely withered)); G: Setaria viridis, herbicidal effect grade (Setaria viridis; [8]): 4 (Herbicidal ratio of 70% or higher and lower than 90%); L: Apera spica-venti, herbicidal effect grade (Apera spica-venti [3]; [8]): 1 (Herbicidal ratio of 5% or higher and lower than 20%); M: Abutilon theophrasti, herbicidal effect grade (Abutilon theophrasti; [8]): 0 (Herbicidal ratio of 5% or lower (almost no effect)); P: Stellaria media, herbicidal effect grade (Stellaria media; [8]): 0 (Herbicidal ratio of 5% or lower (almost no effect)); Q: Galium spurium, herbicidal effect grade (Galium spurium [4]; [8]): 0 (Herbicidal ratio of 5% or lower (almost no effect)); F: Digitaria ciliaris, herbicidal effect grade (Digitaria ciliaris; 269 g/ha): 3 (Herbicidal ratio of 40% or higher and lower than 70%); I: Avena fatua, herbicidal effect grade (Avena fatua; 269 g/ha): 3 (Herbicidal ratio of 40% or higher and lower than 70%); K: Lolium multiflorum Lam., herbicidal effect grade (Lolium multiflorum Lam.; 269 g/ha): 5 (Herbicidal ratio of 90% or more (almost completely withered)); L: Apera spica-venti, herbicidal effect grade (Apera spica-venti [5]; 269 g/ha): 3 (Herbicidal ratio of 40% or higher and lower than 70%); Q: Galium spurium, herbicidal effect grade (Galium spurium [6]; 269 g/ha): 0 (Herbicidal ratio of 5% or lower (almost no effect)); e: wheat, effect on crop grade (wheat; 269 g/ha): 0 (Herbicidal ratio of 5% or lower (almost no effect)); g: rapeseed, effect on crop grade (rapeseed; 269 g/ha): 4 (Herbicidal ratio of 70% or higher and lower than 90%) |
